System: human myeloma cell line MM.1S
Test: SILAC acetylated-lysine peptide profiling, HDAC inhibitor vs DMSO (light/heavy ratio)
Assay type: cell-based
From the text: An embodiment of the invention comprises utilizing the SILAC method in order to quantitate changes in protein expression between two or more populations of cells. The SILAC method is a technique based on mass spectrometry that detects differences in protein abundance among samples using non-radioactive isotopic labeling. The SILAC method is known in the art, and described in detail in Ong et al., “Stable Isotope Labeling by Amino Acids in Cell Culture, SILAC, as a Simple and Accurate Approach to Expression Proteomics”, Molecular & Cellular Proteomics, vol. 1, pp. 376-386 (2002), which is incorporated herein by reference in its entirety.
Briefly, the SILAC method involves growing two populations of cells in cell culture. The first population of cells is grown in growth media containing normal amino acids (“normal media”). The second population of cells is grown in media lacking a standard essential amino acid (such as lysine), but is then supplemented with a non-radioactive, isotopically labeled form of that essential amino acid (such as lysine labeled with ^13C atoms, rather than normal ^12C atoms), which is called “heavy media”. When the two populations of cells are each growing in the medium, they incorporate the amino acids into all of their proteins. The growth of cells maintained in the heavy media is no different from that in normal media. All peptides containing the heavy amino acids are heavier than their normal counterparts. The cells from each of the two populations of cells are lysed. The lysates from each of the two cell populations are then combined. The combined cell lysates are then analyzed by mass spectrometry. Pairs of chemically identical peptides of different stable isotope composition can be differentiated in a mass spectrometer due to their difference in mass. The ratio of peak intensities in the mass spectrum for such peptide pairs reflects the abundance ratio for the two proteins.
This example describes SILAC studies that were performed to compare the effects of three different HDAC inhibitors (Compound A, Compound B, and tubastatin A) to a control on a human multiple myeloma cell line. The HDAC inhibitors were also compared amongst themselves to determine differences in their effects.
A human myeloma cell line MM.1S was grown using either ^12C (light) or ^13C (heavy) lysine containing culture medium. The “heavy” cells were treated with DMSO as the control, and the “light” cells were treated with a single HDAC inhibitor at 37° C. for 6 hours. The heavy and light cells were lysed, and the lysates were mixed in 1:1 ratio and digested with the protease trypsin. The acetylated lysine containing peptides (due to the action of the HDAC inhibitor) in the digested peptide pool were captured by a non-specific anti-acetylated lysine antibody cocktail (the antibodies identify both light and heavy acetylated peptides), and subjected to mass spectrometry analysis in order to identify thousands of individual peptides.
Thousands of peptides were identified in pairs (^12C and ^13C) due to their known mass differences. The amino acid sequence and quantitative ratio (Light/Heavy) of a given peptide in two differentially treated cell lysates were then determined and annotated with their possible protein (gene) sources.
As stated above, three HDAC inhibitors (Compound A, Compound B, and Tubastatin A) were used. Thus, the SILAC method was performed three times, with a different HDAC inhibitor compared to a control each time. Accordingly, there are three pairs of quantitative data in the table below, i.e., Compound A:DMSO, Compound B:DMSO, and Tubastatin A:DMSO. A cut-off of 1.30 fold of change (increase or decrease) was then used to determine “changed” or “+” in the table, and any peptides with a fold of change less than 1.3 fold were determined to be “unchanged” or “0” in the table. Those peptides that were not identified were marked as “NA” in the table. […]

O=C(NO)c1cnc(NC2(c3cccc(F)c3)CCCCC2)nc1 [Compound B, 2-((1-(3-fluorophenyl)cyclohexyl)amino)-N-hydroxypyrimidine-5-carboxamide]
L/H ratio of acetylated peptide FEK(ac)[…] (SEQ ID NO: 32) (DDX17 [132], log 2 scale, drug vs DMSO): 0.00 | L/H ratio of acetylated peptide (DK(ac)WLCPLSGK (SEQ ID NO: 452), Isoform 2 of Serrate RNA effector molecule homolog [712], SRRT): 0.42 log 2 | L/H ratio of acetylated peptide (DK(ac)[…] (SEQ ID NO: 456), F-box-like/WD repeat-containing protein TBL1XR1 [102], TBL1XR1): 0.86 log 2 | L/H ratio of acetylated peptide ELNK(ac)ILEGR (SEQ ID NO: 2) (DLAT [466], log 2 scale, drug vs DMSO): 0.47 | light to heavy ratio (L/H ratio) of acetylated peptide, log 2 scale (DLEK(ac)WQNNLLPSR (SEQ ID NO: 211), 40S ribosomal protein 515a [88], RPS15A): 0.00 | light to heavy ratio (L/H ratio) of acetylated peptide, log 2 scale (DLMTDLK(ac)SEISGDLAR (SEQ ID NO: 129), Annexin A6 [418], ANXA6): 0.00 | light to heavy ratio (L/H ratio) of acetylated peptide TFEK(ac)SMMNLQTK (SEQ ID NO: 354) (DNA topoisomerase 1 [642], TOP1, drug:DMSO): 0.46 log 2 | L/H ratio of acetylated peptide VVK(ac)HPIFER (SEQ ID NO: 35) (DNAJB11 [247], log 2 scale, drug vs DMSO): 0.00 | L/H ratio of acetylated peptide (DVFNK(ac)GYGFGMVK (SEQ ID NO: 467), Isoform 1 of Voltage-dependent anion-selective channel protein 3 [20], VDAC3): −0.73 log 2 | light to heavy ratio (L/H ratio) of acetylated peptide, log 2 scale (DVK(ac)FGADAR (SEQ ID NO: 173), 60 kDa heat shock protein mitochondrial [31], HSPD1): 0.00 | L/H ratio of acetylated peptide (DVTK(ac)AMDEK (SEQ ID NO: 426), Isoform 2 of 6-phosphofructokinase muscle type [329], PFKM): 0.53 log 2 | L/H ratio of acetylated peptide SFDSEFK(ac)LACK (SEQ ID NO: 8) (DYNC1H1 [4283], log 2 scale, drug vs DMSO): 0.51 | light to heavy ratio (L/H ratio) of acetylated peptide DTYIENEK(ac)LISGK (SEQ ID NO: 352) (Dolichyl-diphosphooligosaccharide--protein glycosyltransferase subunit 1 precursor [626], RPN1, drug:DMSO): 0.77 log 2 | light to heavy ratio (L/H ratio) of acetylated peptide YNIEK(ac)DIAAHIK (SEQ ID NO: 553) (Dynein light chain 1 cytoplasmic [36], gene DYNLL1, inhibitor:DMSO): 0.00 log 2 | light to heavy ratio (L/H ratio) of acetylated peptide YNIEK(ac)DIAAYIK (SEQ ID NO: 331) (Dynein light chain 2 cytoplasmic [36], DYNLL2, drug:DMSO): −0.45 log 2 | L/H ratio of acetylated peptide (EFTK(ac)LEEVLTNK (SEQ ID NO: 400), Glutathione S-transferase omega-1 [152], GSTO1): −0.60 log 2 | L/H ratio of acetylated peptide TSK(ac)NK(ac)SSLSR (SEQ ID NO: 14) (EP300 [1558:1560], log 2 scale, drug vs DMSO): 0.43 | L/H ratio of acetylated peptide (ESESVDK(ac)VMDQK (SEQ ID NO: 404), Isoform 1 of Heterogeneous nuclear ribonucleoprotein D0 [153], HNRNPD): −0.53 log 2 | light to heavy ratio (L/H ratio) of acetylated peptide, log 2 scale (EVHK(ac)[…] (SEQ ID NO: 181), Isoform 1 of L-lactate dehydrogenase A chain [232], LDHA): 0.00 | light to heavy ratio (L/H ratio) of acetylated peptide, log 2 scale (EVQTNDLK(ac)EVVNK (SEQ ID NO: 223), 40S ribosomal protein S3a [182], SNORD73A, RPS3A): 0.00 | light to heavy ratio (L/H ratio) of acetylated peptide YLAEK(ac)YEWDVAEAR (SEQ ID NO: 332) (Elongation factor 2 [638], EEF2, drug:DMSO): −0.40 log 2 | light to heavy ratio (L/H ratio) of acetylated peptide TFK(ac)GVVDVVMK (SEQ ID NO: 550) (Elongation factor G 2 mitochondrial precursor [265], gene GFM2, inhibitor:DMSO): 0.00 log 2 | light to heavy ratio (L/H ratio) of acetylated peptide KSDYIK(ac)LYVR (SEQ ID NO: 315) (Endoplasmin [410], HSP90B1, drug:DMSO): 0.00 log 2 | light to heavy ratio (L/H ratio) of acetylated peptide EK(ac)[…] (SEQ ID NO: 314) (Endoplasmin[ 142], HSP90B1, drug:DMSO): 0.00 log 2 | light to heavy ratio (L/H ratio) of acetylated peptide EVEEDEYK(ac)AFYK (SEQ ID NO: 261) (Endoplasmin[ 356], HSP90B1, drug:DMSO): 0.00 log 2 | light to heavy ratio (L/H ratio) of acetylated peptide LMCK(ac)PIFSK (SEQ ID NO: 335) (Eukaryotic translation initiation factor 2 subunit 3 [312], EIF2S3, drug:DMSO): 0.49 log 2 | light to heavy ratio (L/H ratio) of acetylated peptide SHLAK(ac)EGLYQYK (SEQ ID NO: 533) (Eukaryotic translation initiation factor 3 subunit A [68], gene EIF3A, inhibitor:DMSO): 0.00 log 2 | L/H ratio of acetylated peptide (FAFK(ac)EVEVQAK (SEQ ID NO: 397), Putative rRNA methyltransferase 3 [218], FTSJ3): 0.74 log 2 | L/H ratio of acetylated peptide (FEDENFHYK(ac)HDR (SEQ ID NO: 431), Peptidyl-prolyl cis-trans isomerase D [111], PPID): 0.46 log 2 | L/H ratio of acetylated peptide (FGIAAK(ac)YMLDCR (SEQ ID NO: 468), Isoform 1 of Voltage-dependent anion-selective channel protein 3 [224], VDAC3): 0.43 log 2 | L/H ratio of acetylated peptide (FK(ac)ECLDK (SEQ ID NO: 420), Isoform 2 of N-alpha-acetyltransferase 15 NatA auxiliary subunit [307], NAA15): 0.60 log 2 | light to heavy ratio (L/H ratio) of acetylated peptide, log 2 scale (FLEQQNK(ac)[…] (SEQ ID NO: 241), Vimentin [129], VIM): 0.00

Source: patent publication US20140357512A1, “HISTONE DEACETYLASE (HDAC) BIOMARKERS IN MULTIPLE MYELOMA” (priority 2013, published 2014)
